Results reported in publication PMC6534834 (Breast Cancer Research : BCR, 2019).
Where two headings read alike, the source gives them in different places. Each block holds one compound with its values, some of them ahead of it.

Experiments:
FGFR = details: at the RP2D; cited from earlier work
[1] = Nintedanib (BIBF1120-BS and metabolite BIBF1202-ZW) plasma pharmacokinetics (LC-MS/MS); format: in vivo, human; details: for Mean plasma concentration at steady state (day 29) compared with day 1: level 2; for Mean Cmax / Mean AUC0-last / Mean Tmax / Cmax / Tmax / AUC(0-t): nintedanib species in plasma; for Pharmacokinetic interaction: increase in plasma concentrations: nintedanib and letrozole co-administered, three- for nintedanib, twofold for letrozole (respective); for Cmax / Tmax / AUC(0-t): human, plasma, oral; for AUC(0-t): read-out: Mean AUC0-last
Cyp3A4 = details: cited from earlier work
aromatase [2] = biological target: T1, aromatase (Homo sapiens, UniProt P11511); design: endogenous in cells; host or cells: Tissues of the trial patients (in vivo); details: cited from earlier work; for Patients with 17-B-estradiol above the LLD: randomized 3-month crossover letrozole/anastrozole
T1 sequence (P11511 1-503): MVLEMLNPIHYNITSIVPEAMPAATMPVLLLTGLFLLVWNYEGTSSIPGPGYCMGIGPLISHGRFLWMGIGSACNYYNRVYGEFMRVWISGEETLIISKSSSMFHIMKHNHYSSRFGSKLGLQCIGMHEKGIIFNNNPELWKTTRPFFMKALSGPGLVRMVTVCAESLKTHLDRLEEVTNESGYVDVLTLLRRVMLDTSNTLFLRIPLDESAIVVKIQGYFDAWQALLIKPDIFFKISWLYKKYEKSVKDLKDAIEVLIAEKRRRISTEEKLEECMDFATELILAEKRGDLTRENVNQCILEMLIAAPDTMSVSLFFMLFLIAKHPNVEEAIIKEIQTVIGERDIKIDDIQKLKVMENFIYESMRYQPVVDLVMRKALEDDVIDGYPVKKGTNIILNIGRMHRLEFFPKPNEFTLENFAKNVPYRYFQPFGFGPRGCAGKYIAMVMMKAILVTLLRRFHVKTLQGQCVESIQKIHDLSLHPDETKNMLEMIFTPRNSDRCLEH

aromatase [3] = biological target: T1, aromatase; experiment: Plasma 17-B-estradiol level (clinical assay, LLD 5 pg/mL), pharmacodynamic marker of aromatase inhibition in patients; format: in vivo; design: endogenous in cells; host or cells: Tissues of the trial patients (in vivo)
[4] = human, in vivo
[5] = Letrozole plasma pharmacokinetics (UPLC-MS/MS); format: in vivo, human; details: letrozole in plasma; for Cmax / AUC(0-t) / Tmax: human, plasma, oral; for AUC(0-t): read-out: Mean AUC0-last
[6] = system: tumors with FGFR gene alterations; details: cited from earlier work
[7] = level 1 (nintedanib 150 mg/bid + letrozole […]), day 1
[8] = level 2 (nintedanib 200 mg/bid + letrozole […]), day 1

Compound: CCN1CCN(c2ccc(Nc3cc(N(C)C(=O)Nc4c(Cl)c(OC)cc(OC)c4Cl)ncn3)cc2)CC1 [BGJ398]
Increase in FGF23 concentrations (FGFR): ~ 50%

Mean plasma concentration at steady state (day 29) compared with day 1 [1]: almost twofold higher
Mean Cmax [1, 7]: 24 ng/mL
Mean AUC0-last ([1]; level 1, day 1): 200 ng·h/mL
Mean Tmax ([1]; level 1, day 1): 1.9 h
Mean AUC0-last ([1]; level 1, day 29): 367 ng·h/mL
Mean Cmax ([1]; level 1, day 29): 28 ng/mL
Mean Tmax ([1]; level 1, day 29): 1.1 h
Mean Cmax [1, 8]: 41 ng/mL
Mean AUC0-last ([1]; level 2, day 1): 413 ng·h/mL
Mean Tmax ([1]; level 2, day 1): 3.3 h
Mean AUC0-last ([1]; level 2, day 29): 824 ng·h/mL
Mean Cmax ([1]; level 2, day 29): 67 ng/mL
Mean Tmax ([1]; level 2, day 29): 3.0 h
Compound: CN1CCN(CC(=O)N(C)c2ccc(N/C(=C3\C(=O)Nc4cc(C(=O)O)ccc43)c3ccccc3)cc2)CC1 [BIBF1202-ZW]

Compound: COc1cc(OC)cc(N(CCNC(C)C)c2ccc3ncc(-c4cnn(C)c4)nc3c2)c1 [JNJ-42756493]
Increase in FGF23 concentrations (FGFR): ~ 20%

Compound: CC(C)(C#N)c1cc(Cn2cncn2)cc(C(C)(C)C#N)c1 [anastrozole]
Metabolizing enzyme (Cyp3A4): metabolized by Cyp3A4
Patients with plasma 17-B-estradiol concentrations below the LLD (aromatase [2]; n = 191): 83%
Patients with 17-B-estradiol above the LLD (aromatase [2]): 37%

Patients with undetectable 17-B-estradiol levels (below LLD 5 pg/mL) (aromatase [3]; EOT visit, 4 weeks after ceasing nintedanib administration): 100%
Patients with undetectable 17-B-estradiol levels (below LLD 5 pg/mL) (aromatase [3]; day 1 (baseline), letrozole alone […] for at least 4 weeks): 87.5%
Cmax ([5]; Level 1 (nintedanib 150 mg/bid + letrozole […]), day 1): 100 ng/mL
AUC(0-t) ([5]; Level 1, day 1): 2200 ng·h/mL
Cmax ([5]; Level 1, day 29): 89.4 ng/mL
Tmax ([5]; Level 1, day 29): 4 h
AUC(0-t) ([5]; Level 1, day 29): 2060 ng·h/mL
Cmax ([5]; Level 2 (nintedanib 200 mg/bid + letrozole […]), day 1): 124 ng/mL
Tmax ([5]; Level 2, day 1): 4 h
AUC(0-t) ([5]; Level 2, day 1): 2780 ng·h/mL
Cmax ([5]; Level 2, day 29): 148 ng/mL
Tmax ([5]; Level 2, day 29): 2 h
AUC(0-t) ([5]; Level 2, day 29): 3170 ng·h/mL
Mean Tmax ([5]; Level 1, day 1): 0 h
Compound: N#Cc1ccc(C(c2ccc(C#N)cc2)n2cncn2)cc1 [letrozole]
Grade 3 toxic events attributed to letrozole [4]: No grade 3 toxic events were attributed to letrozole
Metabolizing enzyme (Cyp3A4; no reference given): metabolized by Cyp3A4
Suppression of aromatase activity (aromatase [2]; early letrozole trials): > 95%
Patients with 17-B-estradiol above the LLD (aromatase [2]): 2%
Pharmacokinetic interaction: increase in plasma concentrations [1]: three- and twofold increases in their respective plasma concentrations

Cmax [1, 7]: 51 ng/mL
Tmax ([1]; level 1, day 1): 1.9 h
AUC(0-t) ([1]; level 1, day 1): 339 ng·h/mL
Cmax ([1]; level 1, day 29): 50 ng/mL
Tmax ([1]; level 1, day 29): 1.1 h
AUC(0-t) ([1]; level 1, day 29): 519 ng·h/mL
Cmax [1, 8]: 65 ng/mL
Tmax ([1]; level 2, day 1): 2 h
AUC(0-t) ([1]; level 2, day 1): 599 ng·h/mL
Cmax ([1]; level 2, day 29): 92 ng/mL
Tmax ([1]; level 2, day 29): 2 h
AUC(0-t) ([1]; level 2, day 29): 941 ng·h/mL
BIBF1120-BS AUC on day 29 compared with day 1 ([1]; in vivo): almost twofold higher
Mean plasma concentration at steady state (day 29) compared with day 1 [1]: almost twofold higher
BIBF1120-BS AUC on day 29 compared with steady-state values reported in phase I studies ([1]; versus nintedanib monotherapy [28], with pemetrexed [27], or paclitaxel plus carboplatin [47]): two to threefold higher
Compound: COC(=O)c1ccc2c(c1)NC(=O)/C2=C(\Nc1ccc(N(C)C(=O)CN2CCN(C)CC2)cc1)c1ccccc1 [nintedanib]
Metabolizing enzyme (Cyp3A4; no reference given): metabolized by Cyp3A4
Pharmacokinetic interaction: increase in plasma concentrations [1]: three- and twofold increases in their respective plasma concentrations

Compound: AZD4547
Disease stabilization rate ([6]; MATCH arm W, patients with FGFR amplifications): 50%
Response rate ([6]; arm W of the MATCH trial): 8%
